Results published in patent US12551500B2, “C6′-substituted locked nucleic acid-modified cap analog and use thereof” (Hangzhou Tianlong Pharmaceutical Co., Ltd., priority 2024, dated 2026).

Assays:
T7 RNA polymerase [1] = target: T1, T7 RNA polymerase (Escherichia phage T7, UniProt P00573); test: In vitro transcription yield of mRNA with cap analog (co-transcriptional capping); type: biochemical; details: for Yield per unit template: in vitro transcription, 1 μg DNA template, 20 μL system, 37° C. 2 hours; for transcription yield higher than that of compound 14: relative to compound 14
Experimental: (1) Capping synthesis using cap analogs
The plasmid was first linearized with plasmid linearizing enzyme, and then the linearized plasmid was purified.
(2) In vitro transcription and synthesis of mRNA
(§1) YK-CAP-001 to 006 and compound 14 in Table 1 were respectively used as cap analogs.
(§2) During the experiment, the volume of materials required for the system was first calculated, and then sample addition was conducted. The system was first added with sterile enzyme-free water, followed by the sequential addition of 10× buffer, NTPs, and cap analogs, mixed well, and gently centrifuged. Nuclease inhibitors, inorganic pyrophosphatase, T7 RNA polymerase, and linearized DNA templates were then added thereto. The system was mixed well, gently centrifuged, and incubated at 37° C. After 2 hours of incubation, the system was added with 1 U of DNase I and incubated at 37° C. for another 30 minutes. The mRNA precipitate was then washed with 75% ethanol, and after the ethanol was briefly evaporated to dryness, the mRNA was redissolved in sterile enzyme-free water.
(3) The transcription product was purified, and the in vitro transcription yield of mRNA was recorded.

T7 RNA polymerase [2] = target: T1, T7 RNA polymerase; test: Capping rate of in vitro transcribed mRNA by LC-MS; type: biochemical; details: for capping rate higher than that of compound 14: difference to compound 14
Experimental: as §1, §2
(4) The obtained mRNA was subjected to an annealing reaction with a probe.
The annealing reaction was performed in a PCR instrument: 95° C. for 5 minutes; 65° C. for 2 minutes; 55° C. for 2 minutes; 40° C. for 2 minutes; 22° C. for 2 minutes.
(5) Magnetic bead pretreatment and probe binding: 100 μL of magnetic beads was placed on a magnetic frame for pretreatment. The magnetic bead solution was added with 120 μL of sample and incubated at room temperature for 30 minutes with slow mixing.
(6) mRNA splicing and obtaining the 5′ single-strand sequence bound to the probe
The mixture was added with 20 μL of RNase H (5 U/μL) and incubated at 37° C. for 3 hours with mixing every half hour. After incubation, the magnetic beads were washed and then added with 100 μL of 75% methanol heated to 80° C. The mixture was heated to 80° C. on a heating plate, held for 3 minutes, then placed on a magnetic frame to aspirate the supernatant, and dried at room temperature for 45 minutes to a volume of 10 μL using a centrifugal evaporator. The sample was then resuspended in 50 μL of 100 μM EDTA/1% MeOH and ready for LC-MS analysis to determine the capping of RNA in the transcription reaction. Since there is a significant difference in molecular weight between capped and uncapped bases, the capping rate of mRNA transcription initiated by different cap analogs can be determined based on the difference in molecular mass.

HEK293T cells = test: Translation efficiency of capped luciferase mRNAs; type: cell-based; details: for relative fluorescence intensity, times that of HN3002: ratio to HN3002; for relative fluorescence intensity, times that of N-7413: ratio to N-7413; for relative fluorescence intensity, times that of YK-CAP-001: ratio to YK-CAP-001; for relative fluorescence intensity, times that of YK-CAP-002: ratio to YK-CAP-002; for relative fluorescence intensity, times that of m6A: ratio to m6A
Experimental: (1) HEK293T cells were cultured in DMEM medium containing 10% FBS and penicillin/streptomycin at 37° C. with 5% CO2.
(2) Cells in the culture dish were digested and counted, then spread in a 96-well plate at 10,000 cells per well, and cultured overnight until the cells adhered to the wall.
(3) When the cell density reached approximately 80%, transfection was performed by adding 0.5 μg of mRNA sample and Lipofectamine MessengerMAX Transfection Reagent (Invitrogen) per well according to the manufacturer's instructions.
(4) After the transfected cells were cultured at 37° C. with 5% CO2 for 24 hours, the growth medium was removed from the cells to be tested, and the cells were rinsed with PBS. After centrifugation to remove PBS, 50 μL of 1× lysis buffer was added. The cells and all liquid were transferred to a microcentrifuge tube and centrifuged.
(5) 20 μL of sample was taken and added to 100 μL of Dual-Lumi™ II Luciferase Assay Reagent pre-equilibrated to room temperature, and mixed appropriately.
(6) The mixture was incubated at room temperature (approximately 25° C.) for 5 minutes to stabilize the luminescence signal. Chemiluminescence was detected using a multifunctional microplate reader with a function for detecting chemiluminescence, and the data were recorded.

T1 sequence (P00573 whole entry): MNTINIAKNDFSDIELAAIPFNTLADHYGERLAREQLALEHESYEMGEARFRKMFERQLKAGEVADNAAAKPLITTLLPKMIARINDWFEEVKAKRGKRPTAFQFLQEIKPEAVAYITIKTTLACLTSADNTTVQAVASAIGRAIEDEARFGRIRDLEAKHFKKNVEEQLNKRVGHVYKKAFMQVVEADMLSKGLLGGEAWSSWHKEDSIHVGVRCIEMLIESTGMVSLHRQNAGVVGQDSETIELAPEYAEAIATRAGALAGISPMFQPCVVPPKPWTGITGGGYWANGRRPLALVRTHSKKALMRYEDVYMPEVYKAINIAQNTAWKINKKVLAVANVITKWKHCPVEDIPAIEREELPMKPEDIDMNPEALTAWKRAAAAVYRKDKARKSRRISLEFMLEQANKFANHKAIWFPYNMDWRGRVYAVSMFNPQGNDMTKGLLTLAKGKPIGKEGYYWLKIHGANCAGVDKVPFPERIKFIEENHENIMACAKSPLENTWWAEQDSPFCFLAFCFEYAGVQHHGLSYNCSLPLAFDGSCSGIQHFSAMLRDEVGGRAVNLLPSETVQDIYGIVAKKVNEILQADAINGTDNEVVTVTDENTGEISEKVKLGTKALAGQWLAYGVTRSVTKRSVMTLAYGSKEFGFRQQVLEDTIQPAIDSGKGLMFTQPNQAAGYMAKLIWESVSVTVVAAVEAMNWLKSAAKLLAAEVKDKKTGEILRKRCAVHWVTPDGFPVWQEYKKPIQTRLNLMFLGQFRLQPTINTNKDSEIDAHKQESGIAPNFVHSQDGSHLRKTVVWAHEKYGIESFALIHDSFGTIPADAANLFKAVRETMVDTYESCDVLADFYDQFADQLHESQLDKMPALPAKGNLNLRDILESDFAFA

**Q.** Which “Yield per unit template” value (T7 RNA polymerase [1]) does the source give for `COC1C(OP(=O)([O-])OC[C@H]2O[C@@H](n3cnc4c(=O)[nH]c(N)nc43)C(O)C2O)[C@@H](COP(=O)(O)OP(=O)(O)OP(=O)(O)OC[C@]23O[C@@H]([n+]4cn(C)c5c(=O)[nH]c(N)nc54)C(O[C@H]2CC(F)F)C3O)O[C@H]1n1cnc2c(N)ncnc21` (stereo partly shown) [YK-CAP-004] here?
**A.** 163.2 µg

**Q.** And the “transcription yield higher than that of YK-CAP-001” value (T7 RNA polymerase [1]; relative to YK-CAP-001)?
**A.** 82.8%

**Q.** And the “transcription yield higher than that of YK-CAP-002” value (T7 RNA polymerase [1]; relative to YK-CAP-002)?
**A.** 58.3%

**Q.** And the “transcription yield higher than that of compound 14” value (T7 RNA polymerase [1])?
**A.** 35.0%

**Q.** And the “capping rate higher than that of YK-CAP-001” value (T7 RNA polymerase [2]; difference to YK-CAP-001)?
**A.** 23.2%

**Q.** What about the “capping rate higher than that of YK-CAP-002” value (T7 RNA polymerase [2]; difference to YK-CAP-002) of the same compound?
**A.** 26.1%

**Q.** What about the “capping rate higher than that of compound 14” value (T7 RNA polymerase [2]) of the same compound?
**A.** 18.8%

**Q.** What about the Capping rate (T7 RNA polymerase [2]; mRNA transcribed with the cap analog, LC-MS) of the same compound?
**A.** 96.3%

**Q.** What about the “relative fluorescence intensity, times that of HN3002” value (HEK293T cells) of the same compound?
**A.** 1.2 times

**Q.** What about the “relative fluorescence intensity, times that of N-7413” value (HEK293T cells) of the same compound?
**A.** 1.4 times

**Q.** What about the “relative fluorescence intensity, times that of YK-CAP-001” value (HEK293T cells) of the same compound?
**A.** 1.8 times

**Q.** And the “relative fluorescence intensity, times that of YK-CAP-002” value (HEK293T cells)?
**A.** 2.0 times

**Q.** What about the “relative fluorescence intensity, times that of m6A” value (HEK293T cells) of the same compound?
**A.** 4.0 times

**Q.** What does the source list for `COC1C(OP(=O)([O-])OC[C@H]2O[C@@H](n3cnc4c(=O)[nH]c(N)nc43)C(O)C2O)[C@@H](COP(=O)(O)OP(=O)(O)OP(=O)(O)OC[C@]23O[C@@H]([n+]4cn(C)c5c(=O)[nH]c(N)nc54)C(O[C@H]2CCS(C)(=O)=O)C3O)O[C@H]1n1cnc2c(N)ncnc21` (stereo partly shown) [YK-CAP-005]?
**A.** Yield per unit template (T7 RNA polymerase [1]): 152.6 µg; transcription yield higher than that of compound 14 (T7 RNA polymerase [1]): 26.2%; capping rate higher than that of compound 14 (T7 RNA polymerase [2]): 17.7%; relative fluorescence intensity, times that of HN3002 (HEK293T cells): 1.1 times; relative fluorescence intensity, times that of N-7413 (HEK293T cells): 1.3 times; relative fluorescence intensity, times that of YK-CAP-001 (HEK293T cells): 1.6 times; relative fluorescence intensity, times that of YK-CAP-002 (HEK293T cells): 1.9 times; relative fluorescence intensity, times that of m6A (HEK293T cells): 3.7 times

**Q.** For `COC1C(OP(=O)([O-])OC[C@H]2O[C@@H](n3cnc4c(=O)[nH]c(N)nc43)C(O)C2O)[C@@H](COP(=O)(O)OP(=O)(O)OP(=O)(O)OC[C@]23O[C@@H]([n+]4cn(C)c5c(=O)[nH]c(N)nc54)C(O[C@H]2CCS(=O)(=O)N(C)C)C3O)O[C@H]1n1cnc2c(N)ncnc21` (stereo partly shown) [YK-CAP-006], which “Yield per unit template” value (T7 RNA polymerase [1]) is on record?
**A.** 153.1 µg

**Q.** And the “transcription yield higher than that of compound 14” value (T7 RNA polymerase [1])?
**A.** 26.6%

**Q.** What about the “capping rate higher than that of compound 14” value (T7 RNA polymerase [2]) of the same compound?
**A.** 17.6%

**Q.** And the “relative fluorescence intensity, times that of HN3002” value (HEK293T cells)?
**A.** 1.2 times

**Q.** What about the “relative fluorescence intensity, times that of N-7413” value (HEK293T cells) of the same compound?
**A.** 1.3 times

**Q.** And the “relative fluorescence intensity, times that of YK-CAP-001” value (HEK293T cells)?
**A.** 1.7 times

**Q.** And the “relative fluorescence intensity, times that of YK-CAP-002” value (HEK293T cells)?
**A.** 1.9 times

**Q.** And the “relative fluorescence intensity, times that of m6A” value (HEK293T cells)?
**A.** 3.7 times

**Q.** With `COC1C(OP(=O)([O-])OC[C@H]2O[C@@H](n3cnc4c(=O)[nH]c(N)nc43)C(O)C2O)[C@@H](COP(=O)(O)OP(=O)(O)OP(=O)(O)OC[C@]23O[C@@H]([n+]4cn(C)c5c(=O)[nH]c(N)nc54)C(O[C@H]2CC(=O)N(C)C)C3O)O[C@H]1n1cnc2c(N)ncnc21` (stereo partly shown) [YK-CAP-003] as the compound, how does the “Yield per unit template” value (T7 RNA polymerase [1]) read?
**A.** 151.0 µg

**Q.** And the “transcription yield higher than that of compound 14” value (T7 RNA polymerase [1])?
**A.** 24.9%

**Q.** What about the “capping rate higher than that of compound 14” value (T7 RNA polymerase [2]) of the same compound?
**A.** 17.3%

**Q.** And the “relative fluorescence intensity, times that of HN3002” value (HEK293T cells)?
**A.** 1.1 times

**Q.** What about the “relative fluorescence intensity, times that of N-7413” value (HEK293T cells) of the same compound?
**A.** 1.2 times

**Q.** And the “relative fluorescence intensity, times that of YK-CAP-001” value (HEK293T cells)?
**A.** 1.6 times

**Q.** And the “relative fluorescence intensity, times that of YK-CAP-002” value (HEK293T cells)?
**A.** 1.8 times

**Q.** And the “relative fluorescence intensity, times that of m6A” value (HEK293T cells)?
**A.** 3.5 times
